According to patent publication EP0657459A1, “Thienothiazine derivates, process for their preparation and their use as anti-inflammatory and analgesic agents” (Chemisch Pharmazeutische Forschungsgesellschaft m.b.H., priority 1993, dated 1995):
Read-outs that look alike come from different tables or passages of the source.

Columns and labels:
5-Lipoxygenase = molecular target: T1, 5-Lipoxygenase (Rattus norvegicus, UniProt P12527); test: Formation of leukotriene B4 by neutrophils as measure of 5-lipoxygenase activity (A23187 stimulation, RIA); format: cell-based, Sprague Dawley Ratten
T1 sequence (P12527 1-673): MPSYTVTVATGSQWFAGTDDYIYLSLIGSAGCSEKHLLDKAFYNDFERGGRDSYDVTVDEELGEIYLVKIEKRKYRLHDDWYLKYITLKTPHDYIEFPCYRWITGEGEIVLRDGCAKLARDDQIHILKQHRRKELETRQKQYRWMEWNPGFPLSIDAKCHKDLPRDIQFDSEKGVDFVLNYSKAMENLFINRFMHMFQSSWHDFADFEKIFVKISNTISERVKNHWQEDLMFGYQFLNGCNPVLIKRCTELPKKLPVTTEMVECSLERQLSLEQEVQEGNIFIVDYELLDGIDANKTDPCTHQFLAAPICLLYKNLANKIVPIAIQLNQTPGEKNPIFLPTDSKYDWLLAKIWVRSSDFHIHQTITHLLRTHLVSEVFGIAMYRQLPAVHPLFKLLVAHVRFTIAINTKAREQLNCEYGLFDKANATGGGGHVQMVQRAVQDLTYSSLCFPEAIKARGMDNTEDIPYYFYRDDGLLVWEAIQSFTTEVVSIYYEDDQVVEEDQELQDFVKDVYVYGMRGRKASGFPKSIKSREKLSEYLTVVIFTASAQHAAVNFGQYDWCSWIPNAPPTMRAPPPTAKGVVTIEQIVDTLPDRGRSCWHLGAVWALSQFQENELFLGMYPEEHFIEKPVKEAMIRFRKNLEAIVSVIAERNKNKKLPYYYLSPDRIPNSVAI
Protocol: (§1) Die Bildung von Prostaglandin D2 durch Neutrophile wurde als Maß für die Cyclooxygenase-Aktivität verwendet und die Bildung von Leukotrien B4 als Maß für die 5-Lipoxygenase-Aktivität. Männlichen Sprague Dawley Ratten (250-300 g) wurde lamda - Carrageenan 1 mg intraperitoneal (gelöst in 0.5 ml dest. Wasser) injiziert. Nach 16 Stunden wurden die Ratten durch Exposition in Diethylether getötet. 15 ml eiskalte Hanks balanced salt solution (HBSS) wurden i.p. injiziert, die Neutrophilen durch Absaugen geerntet (10 ml), zentrifugiert (5 min, 100g, 4°C), die überstehende Lösung dekantiert und die Zellen in HBSS resuspendiert bei 4 °C bis zu einer Konzentration von 5x10⁶ Zellen/ml. 400 µl Zellsuspension (2x10⁶ Zellen), 0,5µl Verbindung gelöst in DMSO und 49,5 µl HBSS wurden 5 min bei 37°C inkubiert. Dann wurden 50 µl A23187 (2µmol/l Endkonzentration) zugefügt und anschließend wiederum 5 min bei 37°C inkubiert. Die Reaktion wurde durch Zentrifugieren 10000g, 3s gestoppt und die überstehende Flüssigkeit in vorgekühlte Plastikröhrchen übergeführt und vor dem Beginn der Radioimmunoassay-Messung im Eisbad max. 1 h belassen. PGD2 und LTB4 wurde nach Verdünnung mit HBSS mit Hilfe kommerzieller RIA-Kits gemessen. Als Vergleichssubstanz diente 6-Chlor-4-hydroxy-2-methyl-N-(2-pyridyl)-2H-thieno(2,3-e)1,2-thiazin-3carboxamid-1,1-dioxid ("Lornoxicam", Vbg.A)

Cyclooxygenase = test: Formation of prostaglandin D2 by neutrophils as measure of cyclooxygenase activity (A23187 stimulation, RIA); format: cell-based, Sprague Dawley Ratten
Protocol: as §1

[1] = rat peritoneal neutrophils (carrageenan-elicited), 2x10⁶ cells, A23187 2 µmol/l, 5 min 37°C, LTB4 by RIA, read-out: IC50 (µmol/l) LTB4
[2] = read-out: IC50 (µmol/l) PGD2, rat peritoneal neutrophils (carrageenan-elicited), 2x10⁶ cells, A23187 2 µmol/l, 5 min 37°C

Compound | IC50 (5-Lipoxygenase; [1]) | IC50 (Cyclooxygenase; rat peritoneal neutrophils (carrageenan-elicited), 2x10⁶ cells, A23187 2 µmol/l, 5 min 37°C, PGD2 by RIA, read-out: IC50 (µmol/l) PGD2) | IC50 (Cyclooxygenase; [2]) | IC50 (5-Lipoxygenase)
CN1C(C(=O)Nc2ccccn2)=C(O)c2sc(Cl)cc2S1(=O)=O [A] | > 10 µmol/L | 0.02 µmol/L | – | –
CN1C(C(=O)Nc2cccc(-c3cc4ccccc4s3)n2)=C(O)c2sc(Cl)cc2S1(=O)=O [Vbg 1, N-[6-(2-Benzo[b]thienyl)-2-pyridinyl]-6-chlor-4-hydrory-2-methyl-2H-thieno[2,3-e][1,2]thiazin-3-carboxamid-1,1-dioxid] | 2 µmol/L | – | 0.049 µmol/L | –
CN1C(C(=O)Nc2cccc(-c3ccc(-c4ccccc4)cc3)n2)=C(O)c2sc(Cl)cc2S1(=O)=O [Vbg 2, N-[6-(4-Biphenyl)-2-pyridinyl]-6-chlor-4-hydroxy-2-methyl-2H-thieno[2,3-e][1,2]thiazin-3-carboxamid-1,1-dioxid] | – | – | 3.5 µmol/L | 1.4 µmol/L
CN1C(C(=O)Nc2cccc(-c3cccc(Oc4ccc(F)cc4)c3)n2)=C(O)c2sc(Cl)cc2S1(=O)=O [Vbg 3, 6-Chlor-N-{6-[3-(4-fluorphenoxy)phenyl]-2-pyridinyl}-4-hydroxy-2-methyl-2H-thieno[2,3-e]-1,2-thiazin-3-carboxamid-1,1-dioxid] | 1.7 µmol/L | – | 0.45 µmol/L | –
CN1C(C(=O)Nc2cccc(-c3ccc(Oc4ccc(F)cc4)o3)n2)=C(O)c2sc(Cl)cc2S1(=O)=O [Vbg 4, 6-Chlor-N-{6-[5-(4-fluorphenoxy)-2-furyl]-2-pyridinyl}-4-hydroxy-2-methyl-2H-thieno[2,3-e]-1,2-thiazin-3-carboxamid-1,1-dioxid] | 1.3 µmol/L | – | 1.7 µmol/L | –
CN1C(C(=O)Nc2cccc(-c3cc4ccccc4o3)n2)=C(O)c2sc(Cl)c(Cl)c2S1(=O)=O [Vbg 5, N-[6-(2-Benzo[b]furyl)-2-pyridinyl]-6,7-dichlor-4-hydroxy-2-methyl-2H-thieno-[2,3-e][1,2]thiazin-3-carboxamid-1,1-dioxid] | 1.3 µmol/L | – | 0.036 µmol/L | –
